The source of these data is patent publication US11649235B2, “Pan-tropic entry inhibitors” (Emory University, priority 2018, dated 2023).

One may read the pIC50 as the negative decadic logarithm of the IC50, by convention in mol/L. What is called pEC50 is the EC50 on a negative log10 scale, so that one unit is a factor of ten. As usually defined, the inhibition is the percentage by which the read-out fell short of the control. By IC90 is commonly meant the concentration at which the effect reaches the 90% level.

The test system of one data set is HIV. The conditions noted are these: in vitro resistance studies; cited from earlier work.
The conditions of data set [1]: for Relative % remaining, human liver microsomes / HLM: both, 3 μM, pH 7.4; for HLM: human, microsomes. How it is done:
Human Liver Microsomes: Pooled mixed gender human liver microsomes at a concentration of 20 mg/mL were purchased from XenoTech (Kansas City, Kans.). The vials of microsomes were stored at −80° C. and thawed on ice before each experiment. The microsomes were diluted to 1 mg/mL with 100 mM potassium phosphate buffer (pH 7.4).
Experimental Conditions: Test compounds were weighed and dissolved in 100% acetonitrile to make 2 mM stock solutions. […] The 2 mM stock solution of test and control compounds were further diluted in sodium phosphate buffer (100 mM, pH 7.4) to 50 μM to ensure the acetonitrile content was <0.2%.
The liver microsome assay was prepared in a 1.5 mL Eppendorf tube (Fisher Scientific) with a final volume of 1100 μL. Each reaction contained sodium phosphate buffer, liver microsomes (1 mg/mL), and test compound resulting in a final concentration of 3 μM. Following a 5 min pre-incubation of drug and microsomes in a 37° C. shaking incubator, the reaction was initiated with NADPH (110 μL). Aliquots (100 μL) were removed in duplicate at 0, 5, 10, 15, and […] and quenched in cold acetonitrile (200 μL). The aliquots were centrifuged at 12,000 g for 5 min and the supernatant removed and placed in an LCMS vial. […] A no NADPH negative control with test and control compound was conducted in singlet (150 μL) at the longest time point. Controls were processed and analyzed like test compounds.
An Agilent Technologies LCMS system consisting of an Agilent 6120 quadrupole mass spectrometer equipped with an Agilent 1200 binary pump, degasser, and auto sampler (Santa Clara, Calif.). The analytical column used for analysis was an XDB-Eclipse Plus C18 column (4.6 mm×150 mm column; Agilent Technologies). The mobile phase for the HPLC was 50 mM ammonium formate buffer, pH 3.5 (A) and acetonitrile (B). The samples were analyzed using the following 8-minute method: A linear gradient from 10% B to 95% B over for 5 minutes, with a 3 min hold at 95%. An equilibration at 10% B for 5 min was conducted after each run. Sample injection volume was 10 μL and the flow rate was 1.0 mL/min. Single ion monitoring of the mass in positive mode was conducted the molecular weight for each compound. Each time point was assessed on the LCMS and the area, based on the extracted ion, was manually integrated.
Calculations: The depletion of the compound was monitored as a function of time, and the area under the curve was manually integrated. The relative percent remaining was calculated using: Relative % remaining=AreaTime/AreaTime=0*100. The relative percentages for the duplicate runs were averaged and the standard deviations were calculated. Metabolism data averaged duplicates.
(Liver microsomes are vesicles of endoplasmic reticulum, rich in cytochrome P450 enzymes.)

The next data set addresses CYP2D6 (Homo sapiens (Human), UniProt P10635). Nature of the data set: Recombinant CYP inhibition assay (fluorometric), CYP2D6. It counts as in vitro ADME. The conditions noted are these: for pIC50: Table 1. From the text: (§1) Recombinant CYP Inhibition Assay: In a drug discovery program, a rapid screening for cyctochrome P450 (CYP450) inhibitors is a part of the existing standard for avoiding the development of drugs likely to give clinical pharmacokinetic drug-drug interactions and associated toxicities. A microtiter plate-based, direct fluorometric assay for the activities of the principal human drug-metabolizing enzymes, CYP2D6 and CYP3A4 can be used and these assays are rapid and compatible with existing high-throughput assay instrumentation.
(§2) Fluorometric Enzyme Inhibition Assays: Test compounds were dissolved in 100% organic solvent (CH3CN or DMSO) to make 30 mM stock solutions. […] A 100 mM potassium phosphate buffer was prepared and adjusted to pH 7.4. The 30 mM stock solution of test and control compounds (1 mM) were further diluted in phosphate buffer (100 mM, pH 7.4) to ensure the final organic solvent content was <0.2% in the reaction. In a separate falcon tube, a 2× enzyme/substrate (E/S) solution was prepared in phosphate buffer. The final concentration of CYP2D6 (Corning) and AMMC was 10 nM and 4 μM, and CYP3A4 (Corning) and BFC was 20 nM and 40 μM, respectively. In a separate falcon tube, a 2× NADPH regenerating system (NRS) was prepared in phosphate buffer. The final concentration for each component in the assay was as follows: • CYP2D6 assay=0.008 mM NADPH, 3.3 mM glucose 6-phosphate, 0.4 U of glucose-6-phosphate dehydrogenase/mL • CYP3A4 assay=2.45 mM NADPH, 24.7 mM glucose 6-phosphate, 1.25 U of glucose-6-phosphate dehydrogenase/mL
(§3) Both enzymatic assays were conducted in a 96-well microtiter plate (Black, Corning Costar) with a final volume of 100 μL. Preparation of the plate began with the addition of 74 μL of the E/S in the first well, and 50 μL to all subsequent wells (from 2-11). The test compounds (1 μL) were dissolved in the first well to give the first row a final volume of 75 μL. A 1:3 serial dilution of the test compound was conducted by removing 25 μL from the first well and diluting it with the second and so forth until the tenth row. Final concentrations yielded a range from 300 μM-0.01 μM. Well 11 contained no enzyme, and well 12 contained no inhibitor. Both were used as controls for background fluorescence. The plate was incubated for 10 min at 37° C. for CYP2D6, and 30 mins for CYP3A4. After incubation, the reaction was initiated by the addition of 50 μL of the 2× NRS to each well.
(§4) Immediately (within 1 min) the fluorescence was measured using a microplate reader (KC4, BioTek). CYP2D6 was monitored at Ex/Em=410/460 nm, and CYP3A4 monitored at Ex/Em=410/538 nm in kinetic mode that scanned every 5 min for 60 mins. Data was exported and corrected for background noise by subtracting the blank from the mean value of all other columns. […]

The test system of another data set is HIV-1BaL. In words: HIV MAGI assay, HIV-1BaL. The format is cell-based. The conditions noted are these: Human immunodeficiency virus 1, MAGI; for pEC50: Table 1, read-out: HIV MAGI EC50 HIVBa-L. How it is done: (§5) HIV-1 and MAGI Tropism assays can be used to establish activity/cytotoxicity and synergy studies and ADME profiles of compounds are evaluated using in vitro assays such as CYP2D6/3A4 assays and metabolic stability in human and mouse liver microsomes (See Tables 2 and 3).

The target in a further data set is CYP3A4 (Homo sapiens (Human), UniProt P08684). Nature of the data set: Recombinant CYP inhibition assay (fluorometric), CYP3A4. The format is in vitro ADME. The conditions noted are these: for pIC50: Table 1.
Sequence of CYP3A4 (P08684 whole entry): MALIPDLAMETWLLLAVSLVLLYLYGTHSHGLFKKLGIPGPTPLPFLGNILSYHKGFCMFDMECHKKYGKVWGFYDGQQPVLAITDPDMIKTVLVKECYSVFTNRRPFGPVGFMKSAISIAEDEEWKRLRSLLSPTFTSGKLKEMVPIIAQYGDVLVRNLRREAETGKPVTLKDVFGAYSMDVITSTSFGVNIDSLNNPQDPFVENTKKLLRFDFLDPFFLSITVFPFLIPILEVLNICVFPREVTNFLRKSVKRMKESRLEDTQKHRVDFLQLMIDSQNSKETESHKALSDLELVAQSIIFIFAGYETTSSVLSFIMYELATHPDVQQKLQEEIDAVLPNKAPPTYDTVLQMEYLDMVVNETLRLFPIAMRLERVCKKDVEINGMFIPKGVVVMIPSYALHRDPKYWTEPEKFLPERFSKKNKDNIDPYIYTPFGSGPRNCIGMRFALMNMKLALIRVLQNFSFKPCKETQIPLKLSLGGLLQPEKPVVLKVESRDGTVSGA
Source text: as §1, §2, §3, §4

Data set [2] can be described thus: Mouse liver microsomes assay. The format is in vitro ADME. The conditions noted are these: for Relative % remaining, mouse liver microsomes: 3 μM compound, 1 mg/mL microsomes; for MLM: @ 10 min, Table 1. The procedure:
Controls were processed and analyzed like test compounds. […] The relative percent remaining was calculated using: Relative % remaining=[…]=0*100. […] Metabolism data averaged duplicates.

The next data set relates to HIV-1IIIB. Nature of the data set: HIV MAGI assay, HIV-1IIIB. The format is cell-based. The conditions noted are these: Human immunodeficiency virus 1, MAGI; for pEC50: Table 1, read-out: HIV MAGI EC50 HIVIIIB. How it is done:
as §5

Data set [3] has as its system MAGI. Nature of the data set: Cytotoxicity in MAGI HIV-1IIIB assay. The format is cell-based. The conditions noted are these: Table 3. The procedure: as §5
Data set [4] has as its system MAGI. In words: Cytotoxicity in MAGI HIV-1BaL assay. The format is cell-based. The conditions noted are these: Table 3; head prints TC90. How it is done:
as §5

pEC50, pIC50: −log10 of the molar value. Read-outs that look alike come from different tables or passages of the source. Some results are limits rather than exact numbers.

Sequence of CYP2D6 (P10635 whole entry): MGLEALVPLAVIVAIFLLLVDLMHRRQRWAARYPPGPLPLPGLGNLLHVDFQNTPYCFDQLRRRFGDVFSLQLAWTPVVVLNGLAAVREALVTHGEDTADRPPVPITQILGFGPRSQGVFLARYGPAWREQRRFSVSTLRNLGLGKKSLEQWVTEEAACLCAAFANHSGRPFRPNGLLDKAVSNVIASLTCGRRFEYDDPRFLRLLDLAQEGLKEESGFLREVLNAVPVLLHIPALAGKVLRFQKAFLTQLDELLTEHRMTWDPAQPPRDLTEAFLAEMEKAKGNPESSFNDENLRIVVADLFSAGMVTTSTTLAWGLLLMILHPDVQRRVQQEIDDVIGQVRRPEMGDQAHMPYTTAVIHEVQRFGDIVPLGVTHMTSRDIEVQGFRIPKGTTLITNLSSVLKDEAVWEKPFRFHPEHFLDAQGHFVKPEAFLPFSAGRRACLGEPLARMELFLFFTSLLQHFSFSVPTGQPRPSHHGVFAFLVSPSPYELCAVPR

For the compound `Cc1ccc(-c2ccc3c(c2)C=C(C(=O)Nc2ccc(C[N+](C)(C)C4CCOCC4)cc2)CCC3)cc1.[Cl-]` [TAK-779], the “Passages required to develop resistance” value in the data set with HIV was 41 passages.

Turning to `NCCCCN(C[C@@H]1CN(CC[C@H](NC(=O)C2CCC(F)(F)CC2)c2ccccc2)CCN1)[C@H]1CCCc2cccnc21` [Compound 1], the “Relative % remaining, human liver microsomes” value in [1] (10 min) came out at 58 ± 4.9%; in [1] (0.5 h), 25 ± 0.1%. The HLM in data set [1] (10 min) came out at 58% @ 10 min. The pIC50 on CYP2D6 and on CYP3A4 was less than 4.70 in each case. For the same compound, the negative-log EC50 (pEC50) in the data set on HIV-1BaL was 5.59; in the data set on HIV-1IIIB, 6.66. Moreover, the “Relative % remaining, mouse liver microsomes” value in data set [2] (10 min) was determined as 116 ± 3.1%; in [2] (30 min), 93 ± 8.9%. The same compound gave an MLM in data set [2] of 100% @ 10 min.

With `Cc1cn([C@H]2C[C@H](N=[N+]=[N-])[C@@H](CO)O2)c(=O)[nH]c1=O` [AZT], the “Passages required to develop resistance” value with HIV was 11 passages.

Turning to `NCCCCN(Cc1nc2ccccc2[nH]1)[C@H]1CCCc2cccnc21` [AMD11070, reference compound], the inhibition at 60 min, 1 µM at CYP2D6 (human, recombinant CYP2D6, pH 7.4, probe AMMC (4 μM), at 1 μM, read-out: Inhibition of P450 2D6) was found to be 100%. The “Inhibition of P450 3A4” value on CYP3A4 (at 1 μM) came out at 35%.

In the case of `Cc1ccnc2c1NC(=O)c1cccnc1N2C1CC1` [nevirapine], in the data set with HIV, the “Passages required to develop resistance” value is on record as 2 passages.

`NCCCCN(C[C@H]1CN(CC[C@H](NC(=O)C2CCC(F)(F)CC2)c2ccccc2)CCN1)[C@H]1CCCc2cccnc21` [Compound 2]: the “Stability in human liver microsomes (in words)” value in data set [1] is recorded as “good stability”. Further, the figures for the “Relative % remaining, human liver microsomes” value in [1] (10 min) and in data set [1] (0.5 h) were 65 ± 8.6% and 78 ± 2.2%, respectively. This compound also registered an HLM in [1] (10 min) of 65% @ 10 min. Moreover, the negative-log IC50 (pIC50) is less than 4.70 on CYP2D6, 5.58 in the data set on HIV-1BaL (Table 3), less than 4.70 on CYP3A4 and 7.15 with HIV-1IIIB (Table 3). The “Inhibition of cytochrome P450 isoform 2D6 (in words)” value on CYP2D6 (preliminary ADME screening) is “does not inhibit”. Also, the “MAGI HIV-1IIIB TC50” value in the data set with MAGI [3] was more than 10000 nM. Also, in the data set with MAGI [4], the “MAGI HIV-1BaL TC90” value is 33100 nM. Moreover, the figures for the concentration for an effect of 90% (IC90) with HIV-1BaL (Table 3) and in the data set on HIV-1IIIB (Table 3) were 29100 nM and 680 nM, respectively. Moreover, the values for the pEC50 in the data set on HIV-1BaL and in the data set with HIV-1IIIB were 5.58 and 7.15, respectively. The “Inhibition of cytochrome P450 isoform 3A4 (in words)” value at CYP3A4 (preliminary ADME screening) is “does not inhibit”. Also, the “Stability in mouse liver microsomes (in words)” value in data set [2] was “good stability”. The “Relative % remaining, mouse liver microsomes” value in data set [2] (10 min) is 95 ± 7.2%; in data set [2] (30 min) it was 96 ± 6.5%. This compound also yielded an MLM in data set [2] of 95% @ 10 min.

Take `c1cc(CN2CCCNCCNCCCNCC2)ccc1CN1CCCNCCNCCCNCC1` [AMD3100]: the “Passages required to develop resistance” value with HIV is listed as 63 passages.
